# Reference: patent US9840478B2 (MERCK SHARP & DOHME CORP., priority 2013, dated 2017)
# Test system: HIV-1 (H9IIIB strain)
# Test: Cell-based HIV infection assay using a reporter (Cell-Based), MT4-GFP cells
# Details: Human immunodeficiency virus 1, MT4-GFP cells infected with HIV-1 H9IIIB; 50% normal human serum; mean of at least two independent experiments; read-out: Cell-based IP
# Procedure, shortened: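 MT4-GFP cells (HIV LTR-driven GFP) infected 24 h with HIV-1 H9IIIB at low MOI, then washed and plated with compounds in RPMI + 50% normal human serum, 0.4% DMSO final. Green cells counted at 24 and 48 h; R0 = 48 h/24 h ratio, inhibition normalized to DMSO and triple-drug control; IC50 from 4-parameter fit.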
row,SMILES,IC50 [nM]
1,"CC(C)[C@H](c1ccc(Cl)cc1)[C@H](N)C(=O)Nc1cncc(F)c1CC[C@H]1CNC[C@@H](C)N1S(=O)(=O)C1CC1 [Example 178, (βR)-4-chloro-N-(4-{2-[(2S,6R)-1-(cyclopropylsulfonyl)-6-methylpiperazin-2-yl]ethyl}-5-fluoropyridin-3-yl)-β-(1-methylethyl)-L-phenylalaninamide]",340
2,"COC(=O)N[C@H](C(=O)Nc1cncc(F)c1CC[C@H]1CNC[C@H](C)N1S(=O)(=O)C1CC1)[C@@H](c1ccc(Cl)cc1)C(C)C [Example 179, (βR)-4-chloro-N-(4-{2-[(2S,6S)-1-(cyclopropylsulfonyl)-6-methylpiperazin-2-yl]ethyl}-5-fluoropyridin-3-yl)-Nα-(methoxycarbonyl)-β-(1-methylethyl)-L-phenylalaninamide]",33
3,"COC(=O)N[C@H](C(=O)Nc1cncc(F)c1CC[C@H]1CNC[C@@H](C)N1S(=O)(=O)C1CC1)[C@@H](c1ccc(Cl)cc1)C(C)C [Example 180, (βR)-4-chloro-N-(4-{2-[(2S,6R)-1-(cyclopropylsulfonyl)-6-methylpiperazin-2-yl]ethyl}-5-fluoropyridin-3-yl)-Nα-(methoxycarbonyl)-β-(1-methylethyl)-L-phenylalaninamide]",69
4,"C[C@@H]1CNC[C@H](CCc2c(F)cccc2NC(=O)[C@@H](N)C(c2cccc(F)c2)c2cccc(F)c2)N1S(=O)(=O)C1CC1 [Example 181, N-(2-{2-[(2S,6R)-1-(cyclopropylsulfonyl)-6-methylpiperazin-2-yl]ethyl}-3-fluorophenyl)-3-fluoro-β-(3-fluorophenyl)-L-phenylalaninamide]",170
5,"C[C@@H]1CNC[C@H](CCc2c(F)cncc2NC(=O)[C@@H](N)[C@@H](c2ccc(Cl)cc2)C2CCOCC2)N1S(C)(=O)=O [Example 182, (βR)-4-chloro-N-(5-fluoro-4-{2-[(2S,6R)-6-methyl-1-(methylsulfonyl)piperazin-2-yl]ethyl}pyridin-3-yl)-β-(tetrahydro-2H-pyran-4-yl)-L-phenylalaninamide]",130
6,"COC(=O)N[C@H](C(=O)Nc1cccc(F)c1CC[C@H]1CNC[C@@H](C)N1S(C)(=O)=O)[C@@H](c1ccc(Cl)cc1)C1CCOCC1 [Example 183, (βR)-4-chloro-N-(3-fluoro-2-{2-[(2S,6R)-6-methyl-1-(methylsulfonyl)piperazin-2-yl]ethyl}phenyl)-Nα-(methoxycarbonyl)-β-(tetrahydro-2H-pyran-4-yl)-L-phenylalaninamide]",67
7,"COC(=O)N[C@H](C(=O)Nc1cccc(F)c1CC[C@H]1CNC[C@@H](C)N1S(=O)(=O)c1ccccc1)[C@@H](c1ccc(Cl)cc1)c1cccc(F)c1 [Example 184, (βS)-4-chloro-N-(3-fluoro-2-{2-[(2S,6R)-6-methyl-1-(phenylsulfonyl)piperazin-2-yl]ethyl}phenyl)-β-(3-fluorophenyl)-Nα-(methoxycarbonyl)-L-phenylalaninamide]",25
8,"COC(=O)N[C@H](C(=O)Nc1cccc(F)c1CC[C@H]1CNC[C@H](C)N1S(=O)(=O)c1ccccc1)[C@@H](c1ccc(Cl)cc1)c1cccc(F)c1 [Example 185, (βS)-4-chloro-N-(3-fluoro-2-{2-[(2S,6S)-6-methyl-1-(phenylsulfonyl)piperazin-2-yl]ethyl}phenyl)-β-(3-fluorophenyl)-Nα-(methoxycarbonyl)-L-phenylalaninamide]",28
9,"COc1ccc(S(=O)(=O)N2[C@@H](CCc3c(F)cccc3NC(=O)[C@@H](N)[C@@H](Cc3ccc(F)cc3)c3ccc(Cl)cc3)CNC[C@@H]2C)cc1 [Example 186, (βS)-4-chloro-β-(4-fluorobenzyl)-N-[3-fluoro-2-(2-{(2S,6S)-1-[(4-methoxyphenyl)sulfonyl]-6-methylpiperazin-2-yl}ethyl)phenyl]-L-phenylalaninamide]",86
